Reference: patent US20190022198A1, “Individualized Immunomodulation Therapy for Neurodegenerative Disorders, CNS Injury and Age-Related Dementia” (Yeda Research and Development Co. Ltd., priority 2012, published 2019)

Key:
[1] = tested on: 5XFAD mice; assay: Cop 1 (GA) vaccination regimens in 5XFAD mice: FoxP3+ T cells in spleen (FACS) and CP (staining); assay type: in vivo, mouse
Method: For intracellular staining of IFN-γ or IL-17, the cells were incubated with PMA (10 ng/ml; Sigma-Aldrich) and ionomycin (250 ng/ml; Sigma-Aldrich) for 6 h, and Brefeldin-A ([…]; Sigma-Aldrich) was added for the last 4 h. Intracellular labeling of cytokines was done with BD Cytofix/Cytoperm Plus Fixation/Permeabilization kit (cat. no. 555028) according to the manufacturer's protocol. Intracellular staining of FoxP3 was performed using the FoxP3 staining kit (eBioscience) according to the manufacturer's protocol. The following fluorochrome-labeled mAbs were used according to the manufacturers' protocols: FITC-conjugated anti-TCRβ, FITC-conjugated anti-CD44, PE-conjugated anti-CD4, PE-conjugated anti-IL-17A, APC-conjugated anti-IFN-γ, FITC-conjugated anti-CD45.2, Alexa-700-conjugated anti-CD45.2, Percp-Cy5.5-conjugated anti-TCRβ (all from BioLegend), and APC-conjugated anti-FoxP3 (eBioscience). Flow cytometry analysis was performed on each sample using a BD Biosciences LSRII flow cytometer, and the acquired data were analyzed using FlowJo software (Tree star). In each experiment, relevant negative control groups and single stained samples for each tissue were used to determine the populations of interest and to exclude others.
For whole mount staining of the choroid plexus, isolated tissues were fixed with 2.5% paraformaldehyde (PFA) for several hours, and subsequently transferred to PBS containing 0.05% sodium azide. Prior to staining, the dissected tissues were washed and blocked (20% horse serum, 0.3% Triton X-100, and PBS) for 1 h at room temperature with shaking. Whole mount staining with primary (in PBS containing 2% horse serum and 0.3% Triton X-100) and secondary antibodies (in PBS), was performed for 1h at room temperature, with shaking. Each step was followed by three washes in PBS. […] For morphological quantification, average cross-sectional area of epithelial cells was measured following Nissl staining. Cell borders (20-25 cells per picture) were marked and the area was quantified using Image-Pro Plus software in a blinded fashion. […]

[2] = tested on: 5XFAD mice; assay: Radial arm water maze (RAWM) in GA vaccinated 5XFAD mice; assay type: in vivo, mouse
Method: Mice were tested for two days on 6 radial arm water maze paradigm in a water pool, as described in Alamed et al., Nat Protoc. 2006, 1(4), 1671-1679. Briefly, mice received an injection of GA as indicated in the examples. On the first day, 15 trials were performed, in trials 1, 3, 5, 7, 9 and 11 the platform was visible, and in all other trials the platform was hidden. On the second day, 12 trials were performed, all of them with hidden platform. The time required to reach the platform and the number of errors (incorrect arm entries) in 1-min time period was recorded.
To test the effect of different regimens of administration of Cop 1, 5XFAD females were vaccinated subcutaneously (S.C.) with 100 μg Cop 1 dissolved in 200 μl PBS. Three different regimens were compared: 5XFAD+2GA were vaccinated twice, with the second injection given three days after the first; 5XFAD+5GA were vaccinated five times, twice in the first week and once a week for another three weeks, and 5XFAD+daily GA were vaccinated every day for 28 days (19B). One day after the last GA injection, mice were sacrificed and their spleens were analyzed by FACS and compared to WT and untreated 5XFAD littermates. […] Radial arm water maze (RAWM) was performed to 4 groups of 8 months old mice to test mental cognitive performance. […]

[3] = daily administration, subjects receiving daily injections; cited from earlier work

Glatiramer Acetate [GA]
fold change of FoxP3+ T cells in spleen ([1]; 2GA: vaccinated twice, second injection three days after the first, 100 μg S.C., compared to untreated 5XFAD): significant decrease in the fold change of FoxP3^+ T cells | incidence of FoxP3+CD3+ T cells in the CP ([1]; 5XFAD+5GA, compared to untreated 5XFAD littermates): decreased | FoxP3+ T cells in the spleens ([1]; daily GA: every day for 28 days, 100 μg S.C.): promoted the enrichment of FoxP3^+ T cells | RAWM performance (mental cognitive performance) ([2]; daily administration of GA for 28 days): performed as badly as the unvaccinated 5XFAD mice | RAWM performance (mental cognitive performance) ([2]; weekly GA: twice in the first week and once a week for another 3 weeks, compared to unvaccinated 5XFAD): significantly improved | level of Treg cells in the blood [3]: raises the level of Treg cells in the blood
